Article PMC11433870, “Neurotoxicity, Neuroprotection, In Vitro MAOA/MAOB Inhibitory Activity Assessment, Molecular Docking, and Permeability Assay Studies of Newly Synthesized Hydrazones Containing a Pyrrole Ring” (Molecules, 2024)
Where “and” joins values, the source holds several entries; their conditions need not be identical. Identical values can stand only once.

Key:
[1] = pH 7.4, 50 µM, 4 h, 25 °C; Pe calculated in 10^−6 cm/s, presented as −logPe
[2] = test system: isolated rat brain mitochondria; experiment: Neurotoxicity: GSH level in brain mitochondria, substances applied alone; type: cell-based; details: 50 µM applied alone, compared to control
Protocol: (§1) Synaptosomes and mitochondria were obtained by multiple, subcellular fractionation using a Percoll gradient. The necessary brain homogenate was prepared and centrifuged at 1000× g for 5 min at +4 °C. After centrifugation, the supernatants were collected and centrifuged again at 1000× g for 5 min at +4 °C. The supernatants from the two centrifugations were mixed and distributed into four tubes. The tubes were centrifuged at 10,000× g for 20 min at +4 °C three times. The last two centrifugations were for purification of synaptosomes and mitochondria.
(§2) The isolation of the required fractions was based on the formation of a colloidal solution of silicon (Percoll), as per the procedure, including: 1. Preparation of a 90% stock solution of Percoll, followed by preparation of two Percoll solutions of different percentages: 16% and 10%. An amount of 4 mL of each of the prepared 16% and 10% Percoll solutions was placed in six test tubes. A 90% Percoll (7.5% Percoll) was added to the precipitate obtained from the previous step from the last centrifugation. The obtained mixtures in all 12 tubes were centrifuged for 20 min at 15,000× g +4 °C. After centrifugation, three layers are formed in the tubes. The bottom layer contains mitochondria, the top layer contains lipids, and the middle layer—at the 16% to 10% Percoll limit—contains synaptosomes. The respective layer from each tube is removed through a glass pasteurizer and collected into one. Buffer B + glucose is added to it. The mixture was centrifuged at 10,000× g for 20 min at +4 °C. Thus, the isolation buffer is exchanged with the incubation buffer. After centrifugation, the pellet where the synaptosomes are mixed and made up with buffer B + glucose.
[…]. After centrifugation of the homogenate at 6000× g, a 0.04% solution of DTNB was added to the supernatant to give a yellow color, the determination being spectrophotometric at 412 nm.

[3] = test system: isolated rat brain mitochondria; experiment: Neurotoxicity: MDA production in brain mitochondria, substances applied alone; type: cell-based; details: 50 µM applied alone, compared to control
Protocol: as §1, §2
(§3) Synaptosomes and mitochondria were incubated with the test substances at a concentration of 50 µM for 1 h.
To the mitochondria was added 0.3 mL of 0.2% thiobarbituric acid and 0.25 mL of sulfuric acid (0.05 M), and the mixture was boiled for 30 min. After boiling, the tubes were placed on ice, and 0.4 mL of n-butanol was added to each, then centrifuged at 3500× g for 10 min. The amount of MDA was determined spectrophotometrically at 532 nm.

[4] = test system: isolated rat brain synaptosomes; experiment: Neurotoxicity: synaptosomal viability (MTT), substances applied alone; type: cell-based; details: 50 µM applied alone, 1 h, compared to control (untreated synaptosomes)
Protocol: as §1, §2, §3
After 1 h incubation with the substances and toxic agent, synaptosomes were centrifuged on a microcentrifuge for 1 min at 15,000× g. The pellet was mixed gently with buffer B + glucose, and the supernatant where 6-OHDA was discarded to prevent oxidation of MTT. Centrifuge again at 15,000× g for 1 min. After the second wash, buffer B + glucose was added to the pellet. To the ‘washed’ synaptosomes, 60 µL of MTT solution is added. The plates were incubated with the MTT solution at 37 °C for 10 min. After incubation, the samples were centrifuged at 15,000× g for 2 min. The excess liquid was removed, and a DMSO solution was used to dissolve the formed formazan crystals. After dissolution, the amount of formazan is measured spectrophotometrically at λ = 580 nm.

[5] = test system: isolated rat brain microsomes; experiment: Neurotoxicity: MDA production in brain microsomes, substances applied alone; type: cell-based; details: 50 µM applied alone, compared to control
Protocol: (§4) The brain was homogenized in 9 volume parts of 0.1 M Tris buffer containing: 0.1 mM dithiothreitol, 0.1 mM phenylmethylsulfonyl fluoride, 0.2 mM EDTA, 1.15% KCl, and 20% (v/v) glycerol (pH 7.4). The resulting homogenate was centrifuged twice at 17,000× g for 30 min. The supernatants from the two centrifugations were pooled and centrifuged twice at 100,000× g for 1 h. The pellet was frozen in 0.1 M Tris buffer.
(§5) After completion of incubation of the microsomes with the substances and toxic agent, the reaction was stopped by the addition of 0.5 mL of 20% trichloroacetic acid, followed by 0.5 mL of 0.67% thiobarbituric acid. The ongoing reactions are associated with the formation of a colored complex between the malondialdehyde formed and thiobarbituric acid. The determination of MDA was spectrophotometric at 535 nm. A molar extinction coefficient of […] was used for the calculation.

[6] = test system: isolated rat brain mitochondria; experiment: t-BuOOH-induced oxidative stress model: MDA production; details: 50 µM in combination with t-BuOOH (75 µM), compared to the toxic agent
[7] = test system: isolated rat brain microsomes; experiment: Fe2+/AA-induced non-enzyme lipid peroxidation model: MDA production; type: cell-based; details: 50 µM in combination with Fe2+/AA, compared to the toxic agent
Protocol: as §4
Non-enzyme-induced lipid peroxidation was induced with 20 μM ferrous sulfate solution and 0.5 mM ascorbic acid solution [62].
as §5

[8] = test system: isolated rat brain synaptosomes; experiment: 6-OHDA-induced neurotoxicity model: GSH level; type: cell-based; details: 50 µM in combination with 6-OHDA (150 µM), compared to the toxic agent
Protocol: as §1, §2, §3
Synaptosomes were incubated with 6-OHDA (150 μM) for 1 h.
(§6) After precipitation of the proteins with trichloroacetic acid, the thiol groups in the supernatant were determined by DTNB, which produced a yellow-colored compound that absorbs light at λ = 412 nm. After incubation, synaptosomes were centrifuged at 4000× g for 3 min. The supernatant was removed and the pellet taken for GSH determination. It was treated with 5% trichloroacetic acid, then left for 10 min on ice. It was centrifuged at 8000× g for 10 min (2 °C). The supernatant is taken for GSH determination and frozen at −20 °C. Immediately before measurement, the samples are neutralized with 5N NaOH [58].

[9] = target: T1, human recombinant MAOA enzyme (hMAOA) (Homo sapiens, UniProt P21397); experiment: Human recombinant MAOA enzyme activity (fluorometric, Amplex Red); type: biochemical; details: read-out: IC50 (EC50), (µM ± SD) hMAOA
T1 sequence (P21397 1-527): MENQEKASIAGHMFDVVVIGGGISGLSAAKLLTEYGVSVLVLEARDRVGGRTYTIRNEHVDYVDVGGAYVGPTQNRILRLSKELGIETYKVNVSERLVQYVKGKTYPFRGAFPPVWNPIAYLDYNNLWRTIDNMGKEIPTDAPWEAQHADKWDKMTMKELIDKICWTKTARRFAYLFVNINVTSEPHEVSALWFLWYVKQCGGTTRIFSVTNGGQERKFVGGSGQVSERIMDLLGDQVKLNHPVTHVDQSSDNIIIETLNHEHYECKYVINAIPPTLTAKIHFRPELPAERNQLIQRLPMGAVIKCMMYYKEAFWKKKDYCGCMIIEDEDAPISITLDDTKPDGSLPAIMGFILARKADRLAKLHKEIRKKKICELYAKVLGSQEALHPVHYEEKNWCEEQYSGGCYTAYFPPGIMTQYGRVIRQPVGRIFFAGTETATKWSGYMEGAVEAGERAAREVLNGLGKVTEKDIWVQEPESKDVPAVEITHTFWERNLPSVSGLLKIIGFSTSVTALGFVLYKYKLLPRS
Protocol: (§7) The activity of recombinant human MAOA/B was determined fluorometrically. Tyramine hydrochloride was used as substrate. The activity is determined by detection of H2O2 production. This production is in turn reported by binding to horseradish peroxidase using N-acetyl-3,7-dihydroxyphenoxazine (AmplexRed, Thermo Fisher Scientific, Waltham, MA, USA) [63].
(§8) Working solutions of the test substances, reagents, and human recombinant MAOA/B enzyme (hMAOA/B) were prepared in reaction buffer according to the manufacturer’s instructions. A pure working solution of MAOA/B in reaction buffer, a working solution of MAOA/B containing hydrogen peroxide, and a pure reaction buffer were used as controls. Substances were applied at a final concentration of 1 µM. The substances together with hMAOB were placed in a 96-well plate (8 samples for each substance), and then the plate was placed in an incubator for 30 min (in the dark, at 37 °C). Fluorimetric readings were performed in a Synergy 2 Microplate Reader at two wavelengths (570 nm and 690 nm).

[10] = target: T2, human recombinant MAOB enzyme (hMAOB) (Homo sapiens, UniProt P27338); experiment: Human recombinant MAOB enzyme activity (fluorometric, Amplex Red); type: biochemical; details: for inhibition at 1 µM: compared to control (pure hMAOB); for IC50: read-out: IC50 (EC50), (µM ± SD) hMAOB;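 for all read-outs here: tyramine as substrate, H2O2 formation detected by horseradish peroxidase coupled Amplex Red fluorescence read at 570 and 690 nm, compounds incubated with enzyme 30 min at 37 °C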
T2 sequence (P27338 1-520): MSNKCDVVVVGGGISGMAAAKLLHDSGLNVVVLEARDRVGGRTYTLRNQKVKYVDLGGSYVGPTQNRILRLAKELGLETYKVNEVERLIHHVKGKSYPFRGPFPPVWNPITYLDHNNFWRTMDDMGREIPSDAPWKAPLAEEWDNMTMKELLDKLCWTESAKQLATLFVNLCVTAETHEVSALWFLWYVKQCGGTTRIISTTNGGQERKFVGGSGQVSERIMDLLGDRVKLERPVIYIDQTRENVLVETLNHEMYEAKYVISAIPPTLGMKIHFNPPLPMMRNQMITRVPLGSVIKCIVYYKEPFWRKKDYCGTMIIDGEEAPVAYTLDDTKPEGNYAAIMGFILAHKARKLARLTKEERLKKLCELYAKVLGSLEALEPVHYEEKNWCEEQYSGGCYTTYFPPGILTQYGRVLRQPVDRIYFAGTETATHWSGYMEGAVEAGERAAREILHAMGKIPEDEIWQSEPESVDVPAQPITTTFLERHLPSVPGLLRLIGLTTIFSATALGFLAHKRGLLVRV
Protocol: as §7, §8

[11] = test system: isolated rat brain mitochondria; experiment: t-BuOOH-induced oxidative stress model: GSH level; details: 50 µM in combination with t-BuOOH (75 µM), compared to the toxic agent
[12] = test system: isolated rat brain synaptosomes; experiment: Neurotoxicity: reduced glutathione (GSH) level in synaptosomes, substances applied alone; type: cell-based; details: 50 µM applied alone, 1 h, compared to control
Protocol: as §1, §2, §3, §6

Row | SMILES | PAMPA BBB −logPe [1] | decrease of GSH level [2] | increase of MDA production [3] | decrease of synaptosomal viability [4] | increase of MDA production [5] | reduction of MDA production [6] | decrease of MDA production [7] | preservation of GSH level [8] | IC50 [9] | SI: hMAOB selectivity index = IC50(hMAOA)/IC50(hMAOB) [10] | inhibition at 1 µM [10] | IC50 [10] | preservation of GSH level [11] | decrease of glutathione (GSH) level [12]
1 | CCOC(=O)c1cc(-c2ccc(Br)cc2)n(CC(=O)NN=Cc2ccc(N(C)C)cc2)c1C [7a] | 4.849 ± 0.043 | 20% | 63% | 30% | 54% | 14% | 34% | 50% | > 100 µM | >123 | 20% | 0.812 ± 0.1 µM | 40% | 25%
2 | CCOC(=O)c1cc(-c2ccc(Br)cc2)n(CC(=O)NN=Cc2ccc(Cl)cc2)c1C [7b] | 4.416 ± 0.022 and 4.416 | 15% | 43% | 25% | 40% | 28% | 46% | 60% | > 100 µM | >181 | 40% | 0.551 ± 0.1 µM | 70% | 15%
3 | CCOC(=O)c1cc(-c2ccc(Br)cc2)n(CC(=O)NN=Cc2ccc([N+](=O)[O-])cc2)c1C [7c] | 4.601 ± 0.040 | 25% | 53% | 35% | 51% | 18% | 35% | 50% | > 100 µM | >123 | 25% | 0.815 ± 0.2 µM | 40% | 20%
4 | CCOC(=O)c1cc(-c2ccc(Br)cc2)n(CC(=O)NN=Cc2cc(OC)c(O)c(OC)c2)c1C [7d] | 4.819 ± 0.004 and 4.819 | 15% | 34% | 20% | 27% | 35% | 52% | 70% | > 100 µM | >204 | 45% | 0.491 ± 0.09 µM | 80% | 15%
5 | CCOC(=O)c1cc(-c2ccc(Br)cc2)n(CC(=O)NN=Cc2ccc(OC)cc2OC)c1C [7e] | 4.814 ± 0.15 | 25% | 50% | 30% | 52% | 10% | 31% | 40% | > 100 µM | >123 | 35% | 0.81 ± 0.09 µM | 50% | 25%
6 | CCOC(=O)c1cc(-c2ccc(Br)cc2)n(CCC(=O)NN=Cc2ccc(N(C)C)cc2)c1C [8a] | 5.268 and 5.268 ± 0.014 | 20% | 60% | 35% | 55% | 18% | 35% | 40% | > 100 µM | >122 | 20% | 0.821 ± 0.1 µM | 60% | 25%
7 | CCOC(=O)c1cc(-c2ccc(Br)cc2)n(CCC(=O)NN=Cc2ccc(Cl)cc2)c1C [8b] | 4.444 ± 0.004 | 20% | 52% | 30% | 51% | 9% | 31% | 50% | > 100 µM | >123 | 25% | 0.815 ± 0.1 µM | 50% | 20%
8 | CC(C)NCC(O)COc1cccc2ccccc12.Cl (stereo not drawn) [Propranolol HCl, reference compound] | 4.389 ± 0.014 | – | – | – | – | – | – | – | – | – | – | – | – | –
